# Assay results reported in the supplement of paper PMC10307832.
# Assays:
# Experiment in all cases: relative viability (nuclei count vs DMSO), 5 days (fraction); higher = more cells survive
# [1] = test system: 201T
# Procedure, shortened: (§1)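 Five library-drug doses in √10 steps were combined with a fixed anchor-drug dose, or a single drug was given alone, by pin tool to lung cancer cell lines in 1536-well plates the day after seeding. Nuclei were stained and counted after 5 days. Relative viability is the nuclei count in treated wells over that in vehicle wells, taken as the median of duplicate plates.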
# [2] = test system: NCI-H441
# Procedure, shortened: as §1
# [3] = test system: NCI-H838
# Procedure, shortened: as §1
# [4] = test system: HCC-366
# Procedure, shortened: as §1
# [5] = test system: CAL-12T
# Procedure, shortened: as §1
# [6] = test system: EKVX
# Procedure, shortened: as §1
# [7] = test system: LK-2
# Procedure, shortened: as §1
# [8] = test system: ABC-1
# Procedure, shortened: as §1
# [9] = test system: LU99A
# Procedure, shortened: as §1
# [10] = test system: COR-L 105
# Procedure, shortened: as §1
# [11] = test system: HARA
# Procedure, shortened: as §1
# [12] = test system: NCI-H727
# Procedure, shortened: as §1
# [13] = test system: NCI-H661
# Procedure, shortened: as §1
# [14] = test system: NCI-H2170
# Procedure, shortened: as §1
# [15] = test system: NCI-H2009
# Procedure, shortened: as §1
# [16] = test system: PC-14
# Procedure, shortened: as §1
# [17] = test system: NCI-H3122
# Procedure, shortened: as §1
# [18] = test system: COR-L23
# Procedure, shortened: as §1
# [19] = test system: NCI-H1666
# Procedure, shortened: as §1
# [20] = test system: SW 900
# Procedure, shortened: as §1
# [21] = test system: BEN
# Procedure, shortened: as §1
# [22] = test system: NCI-H1650
# Procedure, shortened: as §1
# [23] = test system: NCI-H1437
# Procedure, shortened: as §1
smiles,measurement,setting,value
Oc1nc(-c2ccc(C(F)(F)F)cc2)nc2c1CSCC2 [XAV939] + N=C(N)NC(=N)NCCc1ccccc1 [Phenformin] (partner 250 µM),relative viability,[1]; first compound 0.08 µM,0.475
same,relative viability,[1]; first compound 0.253 µM,0.421
same,relative viability,[1]; first compound 0.8 µM,0.364
same,relative viability,[1]; first compound 2.53 µM,0.421
same,relative viability,[2]; first compound 0.08 µM,0.856
same,relative viability,[2]; first compound 0.253 µM,0.861
same,relative viability,[2]; first compound 0.8 µM,1
same,relative viability,[2]; first compound 2.53 µM,0.851
same,relative viability,[3]; first compound 0.08 µM,0.649
same,relative viability,[3]; first compound 0.253 µM,0.557
same,relative viability,[3]; first compound 0.8 µM,0.521
same,relative viability,[3]; first compound 2.53 µM,0.395
same,relative viability,[4]; first compound 0.08 µM,0.638
same,relative viability,[4]; first compound 0.253 µM,0.596
same,relative viability,[4]; first compound 0.8 µM,0.65
same,relative viability,[4]; first compound 2.53 µM,0.634
same,relative viability,[5]; first compound 0.08 µM,0.592
same,relative viability,[5]; first compound 0.253 µM,0.507
same,relative viability,[5]; first compound 0.8 µM,0.46
same,relative viability,[5]; first compound 2.53 µM,0.417
same,relative viability,[6]; first compound 0.08 µM,0.219
same,relative viability,[6]; first compound 0.253 µM,0.225
same,relative viability,[6]; first compound 0.8 µM,0.213
same,relative viability,[6]; first compound 2.53 µM,0.221
same,relative viability,[7]; first compound 0.08 µM,0.458
same,relative viability,[7]; first compound 0.253 µM,0.527
same,relative viability,[7]; first compound 0.8 µM,0.484
same,relative viability,[7]; first compound 2.53 µM,0.369
same,relative viability,[8]; first compound 0.08 µM,0.212
same,relative viability,[8]; first compound 0.253 µM,0.272
same,relative viability,[8]; first compound 0.8 µM,0.256
same,relative viability,[8]; first compound 2.53 µM,0.233
same,relative viability,[9]; first compound 0.08 µM,0.956
same,relative viability,[9]; first compound 0.253 µM,0.863
same,relative viability,[9]; first compound 0.8 µM,0.807
same,relative viability,[9]; first compound 2.53 µM,0.853
same,relative viability,[10]; first compound 0.08 µM,0.51
same,relative viability,[10]; first compound 0.253 µM,0.492
same,relative viability,[10]; first compound 0.8 µM,0.434
same,relative viability,[10]; first compound 2.53 µM,0.381
same,relative viability,[11]; first compound 0.08 µM,0.425
same,relative viability,[11]; first compound 0.253 µM,0.448
same,relative viability,[11]; first compound 0.8 µM,0.452
same,relative viability,[11]; first compound 2.53 µM,0.432
same,relative viability,[12]; first compound 0.08 µM,0.732
same,relative viability,[12]; first compound 0.253 µM,0.353
same,relative viability,[12]; first compound 0.8 µM,0.635
same,relative viability,[12]; first compound 2.53 µM,0.542
same,relative viability,[13]; first compound 0.08 µM,0.277
same,relative viability,[13]; first compound 0.253 µM,0.272
same,relative viability,[13]; first compound 0.8 µM,0.281
same,relative viability,[13]; first compound 2.53 µM,0.267
same,relative viability,[14]; first compound 0.08 µM,0.393
same,relative viability,[14]; first compound 0.253 µM,0.394
same,relative viability,[14]; first compound 0.8 µM,0.413
same,relative viability,[14]; first compound 2.53 µM,0.362
same,relative viability,[15]; first compound 0.08 µM,0.524
same,relative viability,[15]; first compound 0.253 µM,0.484
same,relative viability,[15]; first compound 0.8 µM,0.421
same,relative viability,[15]; first compound 2.53 µM,0.441
same,relative viability,[16]; first compound 0.08 µM,0.69
same,relative viability,[16]; first compound 0.253 µM,0.592
same,relative viability,[16]; first compound 0.8 µM,0.629
same,relative viability,[16]; first compound 2.53 µM,0.555
same,relative viability,[17]; first compound 0.08 µM,0.38
same,relative viability,[17]; first compound 0.253 µM,0.336
same,relative viability,[17]; first compound 0.8 µM,0.338
same,relative viability,[17]; first compound 2.53 µM,0.39
same,relative viability,[18]; first compound 0.08 µM,0.438
same,relative viability,[18]; first compound 0.253 µM,0.44
same,relative viability,[18]; first compound 0.8 µM,0.466
same,relative viability,[18]; first compound 2.53 µM,0.405
same,relative viability,[19]; first compound 0.08 µM,0.561
same,relative viability,[19]; first compound 0.253 µM,0.497
same,relative viability,[19]; first compound 0.8 µM,0.555
same,relative viability,[19]; first compound 2.53 µM,0.555
same,relative viability,[20]; first compound 0.08 µM,0.657
same,relative viability,[20]; first compound 0.253 µM,0.49
same,relative viability,[20]; first compound 0.8 µM,0.537
same,relative viability,[20]; first compound 2.53 µM,0.419
same,relative viability,[21]; first compound 0.08 µM,0.245
same,relative viability,[21]; first compound 0.253 µM,0.226
same,relative viability,[21]; first compound 0.8 µM,0.264
same,relative viability,[21]; first compound 2.53 µM,0.243
same,relative viability,[22]; first compound 0.08 µM,0.499
same,relative viability,[22]; first compound 0.253 µM,0.456
same,relative viability,[22]; first compound 0.8 µM,0.373
same,relative viability,[22]; first compound 2.53 µM,0.348
same,relative viability,[23]; first compound 0.08 µM,0.343
same,relative viability,[23]; first compound 0.253 µM,0.243
same,relative viability,[23]; first compound 0.8 µM,0.287
same,relative viability,[23]; first compound 2.53 µM,0.252
O=C(O)c1ccc(-c2c[nH]c3ncc(-c4ccccc4)cc23)cc1C1CCCC1 + CC(=O)c1c(C)c2cnc(Nc3ccc(N4CCNCC4)cn3)nc2n(C2CCCC2)c1=O [Palbociclib] (partner 0.5 µM),relative viability,[1]; first compound 0.04 µM,0.353
same,relative viability,[1]; first compound 0.1265 µM,0.364
same,relative viability,[1]; first compound 0.4 µM,0.341
same,relative viability,[1]; first compound 1.265 µM,0.364
same,relative viability,[2]; first compound 0.04 µM,0.248
same,relative viability,[2]; first compound 0.1265 µM,0.232
same,relative viability,[2]; first compound 0.4 µM,0.223
same,relative viability,[2]; first compound 1.265 µM,0.22
same,relative viability,[3]; first compound 0.04 µM,0.189
same,relative viability,[3]; first compound 0.1265 µM,0.267
same,relative viability,[3]; first compound 0.4 µM,0.214
same,relative viability,[3]; first compound 1.265 µM,0.215
same,relative viability,[4]; first compound 0.04 µM,0.442
same,relative viability,[4]; first compound 0.1265 µM,0.43
same,relative viability,[4]; first compound 0.4 µM,0.416
same,relative viability,[4]; first compound 1.265 µM,0.346
same,relative viability,[5]; first compound 0.04 µM,0.496
same,relative viability,[5]; first compound 0.1265 µM,0.442
same,relative viability,[5]; first compound 0.4 µM,0.499
same,relative viability,[5]; first compound 1.265 µM,0.384
same,relative viability,[6]; first compound 0.04 µM,0.444
same,relative viability,[6]; first compound 0.1265 µM,0.379
same,relative viability,[6]; first compound 0.4 µM,0.233
same,relative viability,[6]; first compound 1.265 µM,0.362
same,relative viability,[7]; first compound 0.04 µM,0.826
same,relative viability,[7]; first compound 0.1265 µM,0.768
same,relative viability,[7]; first compound 0.4 µM,0.771
same,relative viability,[7]; first compound 1.265 µM,0.646
same,relative viability,[8]; first compound 0.04 µM,0.674
same,relative viability,[8]; first compound 0.1265 µM,0.892
same,relative viability,[8]; first compound 0.4 µM,0.551
same,relative viability,[8]; first compound 1.265 µM,0.742
same,relative viability,[9]; first compound 0.04 µM,0.43
same,relative viability,[9]; first compound 0.1265 µM,0.439
same,relative viability,[9]; first compound 0.4 µM,0.375
same,relative viability,[9]; first compound 1.265 µM,0.344
same,relative viability,[10]; first compound 0.04 µM,0.422
same,relative viability,[10]; first compound 0.1265 µM,0.392
same,relative viability,[10]; first compound 0.4 µM,0.349
same,relative viability,[10]; first compound 1.265 µM,0.411
same,relative viability,[11]; first compound 0.04 µM,0.308
same,relative viability,[11]; first compound 0.1265 µM,0.267
same,relative viability,[11]; first compound 0.4 µM,0.248
same,relative viability,[11]; first compound 1.265 µM,0.216
same,relative viability,[12]; first compound 0.04 µM,0.676
same,relative viability,[12]; first compound 0.1265 µM,0.662
same,relative viability,[12]; first compound 0.4 µM,0.652
same,relative viability,[12]; first compound 1.265 µM,0.638
same,relative viability,[13]; first compound 0.04 µM,0.414
same,relative viability,[13]; first compound 0.1265 µM,0.411
same,relative viability,[13]; first compound 0.4 µM,0.406
same,relative viability,[13]; first compound 1.265 µM,0.389
same,relative viability,[14]; first compound 0.04 µM,0.387
same,relative viability,[14]; first compound 0.1265 µM,0.438
same,relative viability,[14]; first compound 0.4 µM,0.39
same,relative viability,[14]; first compound 1.265 µM,0.389
same,relative viability,[15]; first compound 0.04 µM,0.152
same,relative viability,[15]; first compound 0.1265 µM,0.246
same,relative viability,[15]; first compound 0.4 µM,0.175
same,relative viability,[15]; first compound 1.265 µM,0.209
same,relative viability,[16]; first compound 0.04 µM,0.473
same,relative viability,[16]; first compound 0.1265 µM,0.532
same,relative viability,[16]; first compound 0.4 µM,0.396
same,relative viability,[16]; first compound 1.265 µM,0.486
same,relative viability,[17]; first compound 0.04 µM,0.201
same,relative viability,[17]; first compound 0.1265 µM,0.175
same,relative viability,[17]; first compound 0.4 µM,0.174
same,relative viability,[17]; first compound 1.265 µM,0.198
same,relative viability,[18]; first compound 0.04 µM,0.296
same,relative viability,[18]; first compound 0.1265 µM,0.326
same,relative viability,[18]; first compound 0.4 µM,0.308
same,relative viability,[18]; first compound 1.265 µM,0.205
same,relative viability,[19]; first compound 0.04 µM,0.604
same,relative viability,[19]; first compound 0.1265 µM,0.622
same,relative viability,[19]; first compound 0.4 µM,0.609
same,relative viability,[19]; first compound 1.265 µM,0.547
same,relative viability,[20]; first compound 0.04 µM,0.523
same,relative viability,[20]; first compound 0.1265 µM,0.521
same,relative viability,[20]; first compound 0.4 µM,0.578
same,relative viability,[20]; first compound 1.265 µM,0.277
same,relative viability,[21]; first compound 0.04 µM,0.459
same,relative viability,[21]; first compound 0.1265 µM,0.422
same,relative viability,[21]; first compound 0.4 µM,0.455
same,relative viability,[21]; first compound 1.265 µM,0.454
same,relative viability,[22]; first compound 0.04 µM,0.34
same,relative viability,[22]; first compound 0.1265 µM,0.285
same,relative viability,[22]; first compound 0.4 µM,0.321
same,relative viability,[22]; first compound 1.265 µM,0.193
same,relative viability,[23]; first compound 0.04 µM,0.326
same,relative viability,[23]; first compound 0.1265 µM,0.319
same,relative viability,[23]; first compound 0.4 µM,0.311
same,relative viability,[23]; first compound 1.265 µM,0.193
